Assay results published in PubChem BioAssay (NCI).
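Cultured in 96-well plates, cells were exposed to test compound for 48 hours across five concentrations. GI50: concentration for 50% inhibition of growth. TGI marks complete inhibition of growth.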

Columns and labels:
Test in all cases: NCI anticancer screen, dose series, 48 h
[1] = tested on: SF-539 CNS
[2] = tested on: OVCAR-5 ovarian
[3] = tested on: SF-295 CNS
[4] = tested on: NCI-H23 lung
[5] = tested on: SK-MEL-2 melanoma
[6] = tested on: M14 melanoma
[7] = tested on: SN12C renal
[8] = tested on: PC-3 prostate
[9] = tested on: DU-145 prostate
[10] = tested on: K-562 leukemia
[11] = tested on: SNB-19 CNS
[12] = tested on: HOP-92 NSCLC
[13] = tested on: IGROV1 ovarian
[14] = tested on: HS 578T breast
[15] = tested on: TK-10 renal
[16] = tested on: MDA-MB-231 breast
[17] = tested on: CCRF-CEM leukemia
[18] = tested on: SR leukemia
[19] = tested on: HCT-116 colon
[20] = tested on: SW-620 colon
[21] = tested on: NCI/ADR-RES ovarian
[22] = tested on: OVCAR-4 ovarian
[23] = tested on: NCI-H522 lung
[24] = tested on: 786-0 renal
[25] = tested on: ACHN renal
[26] = tested on: KM12 colon
[27] = tested on: HT29 colon
[28] = tested on: MDA-MB-435
[29] = tested on: BT-549 breast
[30] = tested on: T-47D breast
[31] = tested on: UACC-257 melanoma
[32] = tested on: OVCAR-8 ovarian
[33] = tested on: RPMI-8226 leukemia
[34] = tested on: UO-31 renal
[35] = tested on: A549 NSCLC
[36] = tested on: HL-60(TB) leukemia
[37] = tested on: HCT-15 colon
[38] = tested on: MOLT-4 leukemia
[39] = tested on: MCF7 breast
[40] = tested on: SK-MEL-5 melanoma
[41] = tested on: LOX IMVI melanoma
[42] = tested on: HOP-62 NSCLC
[43] = tested on: OVCAR-3 ovarian
[44] = tested on: NCI-H460 lung
[45] = tested on: A498 renal
[46] = tested on: RXF 393 renal
[47] = tested on: SNB-75 CNS
[48] = tested on: U251 CNS
[49] = tested on: CAKI-1 renal
[50] = tested on: HCC-2998 colon
[51] = tested on: SK-MEL-28 melanoma
[52] = tested on: SF-268 CNS
[53] = tested on: MALME-3M melanoma
[54] = tested on: EKVX NSCLC
[55] = tested on: UACC-62 melanoma

`Cn1ccnc1C(=O)/C=C/c1ccc(C(=O)Nc2nc3ccccc3[nH]2)cc1` showed a GI50 [1] of 2.7 µM, a TGI [1] of 18 µM and a GI50 [2] of 5.6 µM. The TGI [2] was greater than 25 µM, the GI50 [3] was greater than 25 µM and the TGI [3] was greater than 25 µM. The GI50 [4] was 3.34 µM, the TGI [4] was greater than 25 µM and the GI50 [5] was greater than 25 µM. For the same compound, the TGI [5] was greater than 25 µM, the GI50 [6] was 10.3 µM and the TGI [6] was greater than 25 µM. It also gave a GI50 [7] of 9.93 µM, a TGI [7] greater than 25 µM and a GI50 [8] of 3.78 µM. It also gave a TGI [8] greater than 25 µM, a GI50 [9] of 0.92 µM and a TGI [9] of 4.63 µM. The GI50 [10] was 0.829 µM, the TGI [10] was greater than 25 µM and the GI50 [11] was 9.75 µM. The TGI [11] was greater than 25 µM, the GI50 [12] was 6.28 µM and the TGI [12] was greater than 25 µM. It also gave a GI50 [13] of 5.67 µM, a TGI [13] greater than 25 µM and a GI50 [14] of 5.99 µM. For the same compound, the TGI [14] was greater than 25 µM, the GI50 [15] was 13.3 µM and the TGI [15] was greater than 25 µM. It also gave a GI50 [16] of 3.05 µM, a TGI [16] of 13.1 µM and a GI50 [17] of 1.28 µM. The TGI [17] was greater than 25 µM, the GI50 [18] was 0.956 µM and the TGI [18] was greater than 25 µM. It also gave a GI50 [19] of 1.5 µM, a TGI [19] greater than 25 µM and a GI50 [20] of 0.808 µM. The TGI [20] was greater than 25 µM, the GI50 [21] was 4.95 µM and the TGI [21] was greater than 25 µM. For the same compound, the GI50 [22] was 1.12 µM, the TGI [22] was greater than 25 µM and the GI50 [23] was 8.54 µM. For the same compound, the TGI [23] was greater than 25 µM, the GI50 [24] was 4.44 µM and the TGI [24] was greater than 25 µM. For the same compound, the GI50 [25] was 11 µM, the TGI [25] was greater than 25 µM and the GI50 [26] was 1.12 µM. It also gave a TGI [26] greater than 25 µM, a GI50 [27] of 1.01 µM and a TGI [27] greater than 25 µM. For the same compound, the GI50 [28] was 2.87 µM, the TGI [28] was 19.8 µM and the GI50 [29] was 1.73 µM. The TGI [29] was greater than 25 µM, the GI50 [30] was 3.37 µM and the TGI [30] was greater than 25 µM. The GI50 [31] was greater than 25 µM, the TGI [31] was greater than 25 µM and the GI50 [32] was 8.99 µM. The TGI [32] was greater than 25 µM, the GI50 [33] was 0.81 µM and the TGI [33] was greater than 25 µM. It also gave a GI50 [34] of 2.07 µM, a TGI [34] greater than 25 µM and a GI50 [35] of 10.3 µM. The TGI [35] was greater than 25 µM, the GI50 [36] was 7.87 µM and the TGI [36] was greater than 25 µM. It also gave a GI50 [37] of 0.864 µM, a TGI [37] greater than 25 µM and a GI50 [38] of 7.26 µM. The TGI [38] was greater than 25 µM, the GI50 [39] was 0.9 µM and the TGI [39] was greater than 25 µM. For the same compound, the GI50 [40] was 18.4 µM, the TGI [40] was greater than 25 µM and the GI50 [41] was 2.38 µM. The TGI [41] was greater than 25 µM, the GI50 [42] was 6.42 µM and the TGI [42] was greater than 25 µM. For the same compound, the GI50 [43] was 0.894 µM, the TGI [43] was 17.2 µM and the GI50 [44] was 1.6 µM. It also gave a TGI [44] greater than 25 µM, a GI50 [45] of 4.71 µM and a TGI [45] greater than 25 µM. It also gave a GI50 [46] of 4.51 µM, a TGI [46] greater than 25 µM and a GI50 [47] of 1 µM. It also gave a TGI [47] of 15.9 µM, a GI50 [48] of 0.916 µM and a TGI [48] greater than 25 µM. For the same compound, the GI50 [49] was 1.63 µM, the TGI [49] was greater than 25 µM and the GI50 [50] was 10.3 µM. It also gave a TGI [50] greater than 25 µM, a GI50 [51] greater than 25 µM and a TGI [51] greater than 25 µM. For the same compound, the GI50 [52] was 2.41 µM, the TGI [52] was greater than 25 µM and the GI50 [53] was greater than 25 µM. It also gave a TGI [53] greater than 25 µM, a GI50 [54] of 7.73 µM and a TGI [54] greater than 25 µM. The GI50 [55] was 6.07 µM and the TGI [55] was greater than 25 µM.
